Assay results taken from patent publication US5837706A, “Drug for neuroprotection” (Daiichi Pharmaceutical Co., Ltd., priority 1993, dated 1998).
“Also recorded” adds a separate entry of the source. Where two headings read alike, the source gives them in different places.

Key:
hippocampal calmodulin [1] = assay: Effect on intracellular localization of hippocampal calmodulin in hippocampal homogenate (radioimmunoassay); type: biochemical, gerbil; conditions: for Calmodulin Content, Membrane Fraction / Calmodulin Content, Soluble Fraction: hippocampal homogenate, 37° C., 30 minutes, 1 mM CaCl2, or 1 mM CaCl2 + 10 μM compound A; for Calmodulin Content, Membrane Fraction / Calmodulin Content, Soluble Fraction / effect on the behavior of calmodulin in the presence of EGTA: 1 mM EGTA; for Calmodulin Content, Membrane Fraction: control 8.8 ± 0.25; for Calmodulin Content, Soluble Fraction: control 4.5 ± 0.13
Procedure: The hippocampus of a gerbil was homogenized with 20 mM tris buffer (pH 7.5) containing 0.1 mM leupeptin, 0.1 mM PMSF and 0.01 mg/ml of aprotinin. […] The precipitate was solubilized with 0.1% Lubrol PX. Then the calmodulin contents in the soluble fraction and the membrane fraction were determined by radioimmunoassay.

fodrin [2] = assay: Effect of calcium ion on breakdown of cytoskeltal protein fodrin in hippocampal homogenate (western blotting); type: biochemical, gerbil; conditions: 1 mM CaCl2 or 1 mM EGTA, 37° C., 1 hour
Procedure: The hippocampus taken out from a gerbil was homogenized with 20 mM tris buffer (pH 7.5). […] Then the homogenate was centrifuged at 10,000×g for 30 minutes. After separating proteins contained in the supernatant fraction by SDS-PAGE, the proteins were identified by western blotting with the use of a fodrin antibody (rabbit anti α-Spectrin) and a calmodulin antibody (sheep anti-bovine calmodulin).

[3] = test system: delayed neuronal cell death; conditions: Kogure et al. 1990; cited from earlier work
[4] = target: T1, calmodulin-depending phosphodiesterase (CaM-PDE) / calmodulin (Bos taurus, UniProt P62157); assay: Calmodulin inhibition effect: inhibition of calmodulin-depending phosphodiesterase (PDE); type: biochemical, bovine
T1 construct: calmodulin (CaM, from bovine brain); from tissue; host or cells: bovine brain
Procedure: The calmodulin inhibition effect of a compound was evaluated by using its effect of inhibiting calmodulin-depending phosphodiesterase (PDE) as an index. […] After ceasing the reaction by heating in a boiling water bath for 1 minute, snake venom (1 mg/ml) was added thereto and the resulting mixture was reacted at 30° C. for 10 minutes to thereby convert 5'-GMP formed by PDE into guanosine. Next, the unreacted cGMP was adsorbed by an ion exchange resin (AGI-X8). Subsequently, the mixture was centrifuged and the radioactivity of the supernatant was measured with a liquid scintillation counter.

hippocampal calmodulin [5] = assay: Effect on intracellular localization of hippocampal calmodulin in cerebral ischemic gerbil (radioimmunoassay); type: in vivo; conditions: for increase in the calmodulin content in the membrane fraction / translocation of calmodulin after cerebral ischemia: cerebral ischemic model of gerbil, 100 mg/kg orally, 24 hours after ischemia
Procedure: Both common carotid arteries of a gerbil were ligated for 10 minutes. One hour and 24 hours after allowing the blood stream to flow again, the calmodulin content in the hippocampus was determined by radioimmunoassay. The compound A (100 mg/kg) was suspended in 0.5% methylcellulose and orally administered to the animal 1 hour before cerebral ischemia.

fodrin [6] = assay: Change in fodrin in cerebral ischemic model (western blotting); type: in vivo; conditions: cerebral ischemic model of gerbil; 100 mg/kg 1 hour before ischemia, evaluated 48 hours thereafter
Procedure: Both common carotid arteries of a gerbil were ligated for 10 minutes to thereby prepare a cerebral ischemic model. Four, 24 and 48 hours after allowing the blood stream to flow again, the hippocampus was taken out and homogenized with 20 mM tris buffer (pH 7.5) containing 0.1 mM leupeptin, 0.1 mM PMSF and […]. After centrifuging at 10,000×g for 30 minutes, proteins in the supernatant were separated by SDS-PAGE. Then fodrin and breakdown products thereof were identified by the same method as the one described in Pharmacological Example 3. The compound B (100 mg/kg) was administered 1 hour before cerebral ischemia and evaluated 48 hours thereafter. Fodrin breakdown products were little detected from the normal gerbil. In the case of the cerebral ischemic model, on the other hand, breakdown products appeared 4 hours after allowing the blood stream to flow again and similar bands were observed after 48 hours.

[7] = test system: hippocampal CA1 neuronal cells; assay: Change in hippocampal neuronal cells in cerebral ischemic model; type: in vivo, gerbil; conditions: for Hippocampal Neuronal Cell Density: 100 mg/kg orally 1 hour after 5 min ischemia, CA1, 7 days, n = 9-10, normal 194 ± 6.1, ischemia 9 ± 1.3; for protective effect on neuronal cells / suppression of neuronal cell death: cerebral ischemia, gerbil, 100 mg/kg orally 1 hour after ischemia
Procedure: When transient cerebral ischemia was loaded to a gerbil, necrosis of hippocampal cells was observed from several days thereafter. This change is called delayed neuronal cell death. Cerebral ischemia was loaded to a gerbil for 5 minutes. Seven days thereafter, the animal was sacrificed and the neuronal cells remaining in the hippocampal CA1 region were counted. Most of the hippocampal CA1 cells died due to the cerebral ischemia.

fodrin [8] = conditions: Seubert et al., Synapse 1987; cited from earlier work
[9] = 100 mg/kg orally 1 hour before 10 min ischemia, 24 hrs after ischemia, n = 10-12

For [Ca+2].[Cl-].[Cl-] [CaCl2, calcium chloride, reference compound], the “calmodulin content in the membrane fraction, change in words” value (hippocampal calmodulin [1]; 1 mM calcium chloride, compared with EGTA) was “increased”, the “Calmodulin Content, Membrane Fraction” value (hippocampal calmodulin [1]) was 11.4 ± 0.34 μg/mg protein and the “stable breakdown products of fodrin (140-150 kDa)” value (fodrin [2]) was “bands of the breakdown products appeared”.
With O=C(O)CN(CCOCCOCCN(CC(=O)O)CC(=O)O)CC(=O)O [EGTA, ethylenebis(oxyethylenenitrylo)tetraacetic acid, reference compound] the “Calmodulin Content, Soluble Fraction” value (hippocampal calmodulin [1]) was 12.3 ± 0.77 μg/mg protein, the “Calmodulin Content, Membrane Fraction” value (hippocampal calmodulin [1]) was 7.6 ± 0.40 μg/mg protein and the “stable breakdown products of fodrin (140-150 kDa)” value (fodrin [2]) was “little observed”.
For NCCCCCCNS(=O)(=O)c1cccc2c(Cl)cccc12 [W-7, reference compound], the “effect on the behavior of calmodulin in the presence of EGTA” value (hippocampal calmodulin [1]) is given as “no effect” and the “effect of suppressing delayed neuronal cell death” value [3] is given as “no effect”.
In the case of COc1ccc(Cn2nc(CCN3CCN(c4cccc(Cl)c4C)CC3)c3cc(OC)c(OC)cc32)cc1OC [compound A], the IC50 [4] is reported as 3.93 µM, the selectivity for calmodulin [4] is reported as “high selectivity for calmodulin” and the “change in calmodulin content / localization caused by calcium ion” value (hippocampal calmodulin [1]; 10 μM compound A, 1 mM calcium chloride, in vitro) is reported as “significantly suppressed”. For the same compound, the “effect on the behavior of calmodulin in the presence of EGTA” value (hippocampal calmodulin [1]) was “no effect”, the “Calmodulin Content, Soluble Fraction” value (hippocampal calmodulin [1]) was 1.75 ± 0.52 μg/mg protein and the “Calmodulin Content, Membrane Fraction” value (hippocampal calmodulin [1]) was 7.1 ± 0.50 μg/mg protein. The “Calmodulin Content, Cytoplasm Fraction” value (hippocampal calmodulin [5]; [9]) was 1.3 ± 0.08 μg/mg protein, the “Calmodulin Content, Membrane Fraction” value (hippocampal calmodulin [5]; [9]) was 1.4 ± 0.05 μg/mg protein and the “increase in the calmodulin content in the membrane fraction / translocation of calmodulin after cerebral ischemia” value (hippocampal calmodulin [5]) was “significantly suppressed; also recorded: suppress”. For the same compound, the “fodrin breakdown products due to cerebral ischemia” value (fodrin [6]) was “suppress”, the “Hippocampal Neuronal Cell Density” value [7] was 98 ± 22.0 /mm and the “protective effect on neuronal cells / suppression of neuronal cell death” value [7] was “a protective effect on neuronal cells was clearly observed; also recorded: suppress neuronal cell death”.
For COc1cc2c(CCN3CCN(c4cccc(Cl)c4C)CC3)nn(Cc3c[nH]cn3)c2cc1OC [compound B], the selectivity for calmodulin [4] was “high selectivity for calmodulin”, the IC50 ([4]; pH 7.5, 1 mM CaCl2, 30° C., 10 minutes) was 5.46 µM and the “increase in the calmodulin content in the membrane fraction / translocation of calmodulin after cerebral ischemia” value (hippocampal calmodulin [5]) was “suppress”. For the same compound, the “fodrin breakdown products due to cerebral ischemia” value (fodrin [6]) was “scarcely detected; also recorded: suppress”, the “Hippocampal Neuronal Cell Density” value [7] was 131 ± 21.2 /mm and the “protective effect on neuronal cells / suppression of neuronal cell death” value [7] was “a protective effect on neuronal cells was clearly observed; also recorded: suppress neuronal cell death”.
In the case of CN1CCN(CCCN2c3ccccc3Sc3ccc(C(F)(F)F)cc32)CC1 [trifluoropelazine], the breakdown of fodrin (fodrin [8]) is listed as “suppressed”.
